Experimental data as given in patent US9394297B2, “Amides as pim inhibitors” (AMGEN INC., priority 2012, dated 2016).
Where two headings read alike, the source gives them in different places.

Columns and labels:
Pim-1 [1] = biological target: T1, Pim-1 (Homo sapiens (Human), UniProt P11309); test: Pim enzyme assay (HTRF, 96-well), Pim-1; assay type: biochemical; conditions: full length recombinant Pim-1, biotinylated-BAD (S112) peptide, 10-point curve, 2 h RT, read-out: Pim-1 IC50 IP
Source text: (§1) These cDNAs were used as templates in PCR reactions to produce full-length DNA clones of the PIMs. […] PCR products were digested with BclI and EcoRI for Pim-1 and BamHI and EcoRI for Pim-2 and ligated into a modified baculovirus transfer vector (pFastBac1) cleaved with BamHI and EcoRI. For bacterial expression, the same cleaved PCR products encoding Pim-1 or Pim-2 were ligated into a modified E. coli expression vector pET28(a) cleaved with BamHI and EcoRI. Amino-terminal hexahistidine tags followed by a thrombin cleavage site were previously added to the vectors using standard methods of molecular biology.
(§2) Recombinant baculoviruses expressing Pim-1 or Pim-2 were made using standard methods (Fastbac manual, Invitrogen, Carlsbad, Calif.). […] Cells were harvested by centrifugation and frozen at −80 C. For E. coli expression, cells carrying pET28-His6-Th-Pim-1 or pET28-His6-Th-Pim-2 were picked from a single colony and grown o/n in LB media. The o/n culture was used to inoculate a 2 liter flask with 500 mL media. This was grown o/n and used to inoculate 15-20 liters of Terrific Broth in a New Brunswick Scientific fermentor. The E. coli were grown at 37° C. to and OD600 >1.6. The temperature was dropped to 18° C. and o/n expression was induced with 0.5 mM IPTG. Cells were harvested by centrifugation and frozen at −80° C.
(§3) The slurry was centrifuged at 1,000×g for 5 min, the supernatant decanted, and the resin suspended in 40 mL of lysis wash buffer (lysis buffer at 0.75 M NaCl). This step was repeated 3× and the resin was transferred to a 2.5 cm glass column. Ten column volumes of wash buffer (0.05 M HEPES, pH 8.0, 0.1 M NaCl, 0.01 M 2-mercaptoethanol, 10%(w/v) glycerol) were applied to the resin followed by 10 column volumes of elution buffer (0.05 M HEPES, pH 8.0, 0.25 M NaCl, 0.01 M 2-mercaptoethanol, 10%(w/v) glycerol, 0.1 M imidazole). Fractions were analyzed by SDS-PAGE and those containing the protein of interest were pooled and concentrated. The concentrated protein was applied to an Amersham Superdex 75 (XK 26/60) column equilibrated in 0.025 M Tris-HCl, pH 7.5, 0.1 M NaCl, 0.01 M 2-mercaptoethanol, 10% (w/v) glycerol. […] Fractions containing the monomeric protein of interest were pooled, concentrated to ˜2 mg/mL, and stored at −80° C.
(§4) The phosphorylation of biotinylated-BAD (S112) peptide by full length recombinant Pim-1, Pim-2, or Pim-3 protein was detected with streptavidin:Allophycocyanin (APC) conjugate and a europium (Eu) labeled antibody directed against phosphorylated-BAD (S112). […] The fluorescence is directly proportional to the amount of phosphorylated BAD peptide present in the reaction. […] A reference compound was included on each assay plate in order to validate that plate; on one plate of every assay run, two additional reference compounds were included. The final buffer conditions were as follows: 60 mM Hepes, pH 7.0, 0.05% BSA, 2 mM DTT. Incubations were carried out at RT (22° C.) for 2 h for Pim-1, 1 hour and 30 min for Pim-3, and 45 min for Pim-2. The reaction was stopped by the addition of 3 mM EDTA, and fluorescence was measured by an HTRF® Rubystar microplate reader. For each plate, percent of control (POC) values were calculated for each well. Values for the IC50 IP were estimated using a standard 4-parameter logistic model.

Pim-2 [2] = biological target: T2, Pim-2 (Homo sapiens (Human), UniProt Q9P1W9); test: Pim enzyme assay (HTRF, 96-well), Pim-2; assay type: biochemical; conditions: full length recombinant Pim-2, biotinylated-BAD (S112) peptide, 10-point curve, 45 min RT, read-out: Pim-2 IC50 IP
T2 sequence (Q9P1W9 whole entry): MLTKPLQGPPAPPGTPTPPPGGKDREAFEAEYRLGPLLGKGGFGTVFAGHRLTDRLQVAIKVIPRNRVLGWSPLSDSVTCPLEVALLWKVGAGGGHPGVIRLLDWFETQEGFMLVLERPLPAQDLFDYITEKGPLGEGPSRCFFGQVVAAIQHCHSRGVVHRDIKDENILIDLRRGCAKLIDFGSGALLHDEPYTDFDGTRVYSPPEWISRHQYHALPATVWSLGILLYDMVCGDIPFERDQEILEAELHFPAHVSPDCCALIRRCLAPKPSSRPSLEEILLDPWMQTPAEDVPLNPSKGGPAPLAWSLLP
Source text: as §1, §2, §3, §4

Pim-1 [3] = biological target: T1, Pim-1; test: Pim-Mn enzyme assay (HTRF, 384-well), Pim-1; assay type: biochemical; conditions: Pim-1 enzyme 5 pM, ATP 1.5 μM, BAD (S112) 0.5 μM, HTRF, 22-point curve; read-out: Pim-1-Mn IC50 IP
[4] = system: KMS-12-BM myeloma cell line; test: Pim KMS-12 cell assay (phospho-BAD S112 / total BAD, MSD)
Pim-2 [5] = biological target: T2, Pim-2; test: Pim-Mn enzyme assay (HTRF, 384-well), Pim-2; assay type: biochemical; conditions: Pim-2 enzyme 0.5 pM, ATP 1.5 μM, BAD (S112) 0.5 μM, HTRF, 22-point curve; read-out: Pim-2-Mn IC50 IP
[6] = Homo sapiens, KMS-12-BM, read-out: KMS-12-BM IC50 IP, KMS-12-BM cells, phospho-BAD (S112) vs total BAD, 1 hour 50 min with compound

T1 sequence (P11309 whole entry): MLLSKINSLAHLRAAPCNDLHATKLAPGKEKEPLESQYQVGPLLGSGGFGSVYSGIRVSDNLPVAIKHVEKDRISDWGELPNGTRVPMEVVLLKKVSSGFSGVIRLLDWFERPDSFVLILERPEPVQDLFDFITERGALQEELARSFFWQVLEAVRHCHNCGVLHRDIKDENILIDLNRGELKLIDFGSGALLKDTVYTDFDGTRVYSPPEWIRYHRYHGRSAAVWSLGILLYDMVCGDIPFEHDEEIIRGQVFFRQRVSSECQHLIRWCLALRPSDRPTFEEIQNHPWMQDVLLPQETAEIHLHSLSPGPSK

| Structure (SMILES) | IC50 (Pim-1 [1]) | IC50 (Pim-2 [2]) | further results |
| --- | --- | --- | --- |
| Cc1nc2cccc(-c3cc4n(c3)CCNC4=O)c2nc1NC1CC1 [Example 233, 7-(3-(cyclopropylamino)-2-methylquinoxalin-5-yl)-3,4-dihydropyrrolo[1,2-a]pyrazin-1(2H)-one 2,2,2-trifluoroacetate] | 44.6 nM |  | IC50 (Pim-1 [3]): 25 nM; IC50 [4, 6]: 621 nM |
| Cn1cc(-c2cccc3ccc(Nc4ccccc4)nc23)cc1C(N)=O [Example 164, 1-methyl-4-(2-(phenylamino)quinolin-8-yl)-1H-pyrrole-2-carboxamide] | 243 nM |  |  |
| O=C(Nc1ccccc1)c1ccc2cccc(-c3cc4c([nH]3)CCNC4=O)c2n1 [Example 95, 8-(4-oxo-4,5,6,7-tetrahydro-1H-pyrrolo[3,2-c]pyridin-2-yl)-N-phenylquinoline-2-carboxamide] | 222 nM |  |  |
| CC(C)CC1CNC(=O)c2cc(-c3cccc4cccnc34)[nH]c21 (racemic) [Example 125, rac-7-isobutyl-2-(quinolin-8-yl)-6,7-dihydro-1H-pyrrolo[3,2-c]pyridin-4(5H)-one] | 41.8 nM |  | IC50 (Pim-1 [3]): 21.1 nM; IC50 (Pim-2 [5]): 278 nM |
| Cc1nc2cccc(-c3cc4c([nH]3)CCNC4=O)c2nc1NC1CCCCCC1 [Example 134, 2-(3-(cycloheptylamino)-2-methylquinoxalin-5-yl)-6,7-dihydro-1H-pyrrolo[3,2-c]pyridin-4(5H)-one] | 8.9 nM |  |  |
| CC1CNC(=O)c2cc(-c3cccc4ccc(Cl)nc34)[nH]c21 (racemic) [Example 27, rac-2-(2-chloroquinolin-8-yl)-7-methyl-6,7-dihydro-1H-pyrrolo[3,2-c]pyridin-4(5H)-one] |  | 366 nM |  |
| O=C1NCCn2cc(-c3cccc4ccc(C(=O)N5CCCC5)nc34)cc21 [Example 168, 7-(2-(pyrrolidine-1-carbonyl)quinolin-8-yl)-3,4-dihydropyrrolo[1,2-a]pyrazin-1(2H)-one] | 608 nM |  |  |
| Cc1nc2cccc(-c3cc4c([nH]3)CCNC4=O)c2nc1NC1CCC(=O)N(C)C1 (racemic) [Example 195, rac-2-(2-methyl-3-((1-methyl-6-oxopiperidin-3-yl)amino)quinoxalin-5-yl)-6,7-dihydro-1H-pyrrolo[3,2-c]pyridin-4(5H)-one 2,2,2-trifluoroacetate] |  | 177 nM |  |
| CCC1CNC(=O)c2cc(-c3cccc4ccc(Cl)nc34)[nH]c21 (racemic) [Example 22, rac-2-(2-chloroquinolin-8-yl)-7-ethyl-6,7-dihydro-1H-pyrrolo[3,2-c]pyridin-4(5H)-one] | 60.9 nM |  |  |
| O=C1NCCc2[nH]c(-c3c(F)ccc4ccc(NC5CCCCC5)nc34)cc21 [Example 90, 2-(2-(cyclohexylamino)-7-fluoroquinolin-8-yl)-6,7-dihydro-1H-pyrrolo[3,2-c]pyridin-4(5H)-one] | 340 nM |  |  |

The next lines start with results.

| IC50 (Pim-1 [1]) | IC50 (Pim-2 [2]) | Structure (SMILES) | further results |
| --- | --- | --- | --- |
| 269 nM |  | O=C(NC1CC1)c1ccc2cccc(-c3cc4c([nH]3)CCNC4=O)c2n1 [Example 94, N-cyclopropyl-8-(4-oxo-4,5,6,7-tetrahydro-1H-pyrrolo[3,2-c]pyridin-2-yl)quinoline-2-carboxamide] |  |
|  | > 1000 nM | Cc1nc2cccc(-c3cc4c([nH]3)CCNC4=O)c2nc1F [Example 126, 2-(3-fluoro-2-methylquinoxalin-5-yl)-6,7-dihydro-1H-pyrrolo[3,2-c]pyridin-4(5H)-one] |  |
|  | 11.5 nM | O=C1NCCc2[nH]c(-c3cccc4ccc(Sc5ccccc5)nc34)cc21 [Example 5, 2-(2-(phenylthio)quinolin-8-yl)-6,7-dihydro-1H-pyrrolo[3,2-c]pyridin-4(5H)-one] | IC50 [4, 6]: 5700 nM |
| 283 nM |  | COCCNC(=O)c1ccc2cccc(-c3cc4c([nH]3)CCNC4=O)c2n1 [Example 96, N-(2-methoxyethyl)-8-(4-oxo-4,5,6,7-tetrahydro-1H-pyrrolo[3,2-c]pyridin-2-yl)quinoline-2-carboxamide] |  |
|  | 61 nM | CC1CNC(=O)c2cc(-c3cccc4ccc(Oc5ccccc5)nc34)[nH]c21 (racemic) [Example 28, rac-7-methyl-2-(2-phenoxyquinolin-8-yl)-6,7-dihydro-1H-pyrrolo[3,2-c]pyridin-4(5H)-one] |  |
| 0.6 nM |  | CCC1CNC(=O)c2cc(-c3cccc4cc(C)c(Nc5ccccc5)nc34)[nH]c21 (single isomer, unassigned) [Example 117, 7-ethyl-2-(3-methyl-2-(phenylamino)quinolin-8-yl)-6,7-dihydro-1H-pyrrolo[3,2-c]pyridin-4(5H)-one] | IC50 [4, 6]: 3150 nM |
|  | 34.2 nM | CC1Cc2[nH]c(-c3cccc4ccc(Nc5ccccc5)nc34)cc2C(=O)N1 (racemic) [Example 237, rac-6-methyl-2-(2-(phenylamino)quinolin-8-yl)-6,7-dihydro-1H-pyrrolo[3,2-c]pyridin-4(5H)-one] | IC50 [4, 6]: 6580 nM |
| 14.1 nM |  | CCC1CNC(=O)c2cc(-c3cccc4ccc(Oc5ccccc5)nc34)[nH]c21 (racemic) [Example 23, rac-7-ethyl-2-(2-phenoxyquinolin-8-yl)-6,7-dihydro-1H-pyrrolo[3,2-c]pyridin-4(5H)-one] |  |
|  | 35.3 nM | CC1Cc2[nH]c(-c3cccc4ccc(Nc5ccccc5)nc34)cc2C(=O)N1 (single isomer, unassigned) [Example 33, 6-methyl-2-(2-(phenylamino)quinolin-8-yl)-6,7-dihydro-1H-pyrrolo[3,2-c]pyridin-4(5H)-one] | IC50 [4, 6]: 4100 nM |
| 227 nM |  | CN1CCN(C(=O)c2ccc3cccc(-c4cc5c([nH]4)CCNC5=O)c3n2)CC1 [Example 97, 2-(2-(4-methylpiperazine-1-carbonyl)quinolin-8-yl)-6,7-dihydro-1H-pyrrolo[3,2-c]pyridin-4(5H)-one] |  |
| 1 nM |  | CCC1CNC(=O)c2cc(-c3cccc4cc(C)c(Nc5ccccc5)nc34)[nH]c21 (racemic) [Example 250, rac-7-ethyl-2-(3-methyl-2-(phenylamino)quinolin-8-yl)-6,7-dihydro-1H-pyrrolo[3,2-c]pyridin-4(5H)-one] | IC50 [4, 6]: 2820 nM |
|  | 73.3 nM | CC1Cc2[nH]c(-c3cccc4ccc(Nc5ccccc5)nc34)cc2C(=O)N1 (single isomer, unassigned) [Example 34, 6-methyl-2-(2-(phenylamino)quinolin-8-yl)-6,7-dihydro-1H-pyrrolo[3,2-c]pyridin-4(5H)-one] |  |
| 3.2 nM |  | CCC1CNC(=O)c2cc(-c3cccc4cc(C)c(Nc5ccccc5)nc34)[nH]c21 (single isomer, unassigned) [Example 118, 7-ethyl-2-(3-methyl-2-(phenylamino)quinolin-8-yl)-6,7-dihydro-1H-pyrrolo[3,2-c]pyridin-4(5H)-one] | IC50 ([4]; read-out: KMS-12-BM IC50 IP, KMS-12-BM cells, phospho-BAD (S112) vs total BAD, 1 hour 50 min with compound): 5210 nM |
|  | 204 nM | CC(Oc1ccc2cccc(-c3cc4c([nH]3)CCNC4=O)c2n1)C(F)(F)F (racemic) [Example 79, rac-2-(2-((1,1,1-trifluoropropan-2-yl)oxy)quinolin-8-yl)-6,7-dihydro-1H-pyrrolo[3,2-c]pyridin-4(5H)-one] |  |
